Test results as given in ChEMBL document CHEMBL3997794, “Design and synthesis of benzodiazepine analogs as isoform-selective human lysine deacetylase inhibitors” (Eur J Med Chem, 2017).

Key:
[1] = target: T1, Protein deacetylase HDAC6 (Homo sapiens, UniProt Q9UBN7); experiment: Inhibition of human KDAC6 using FITC-labeled histone H4 acetylated peptide as substrate after 60 mins by fluorescence assay
T1 sequence (Q9UBN7 whole entry): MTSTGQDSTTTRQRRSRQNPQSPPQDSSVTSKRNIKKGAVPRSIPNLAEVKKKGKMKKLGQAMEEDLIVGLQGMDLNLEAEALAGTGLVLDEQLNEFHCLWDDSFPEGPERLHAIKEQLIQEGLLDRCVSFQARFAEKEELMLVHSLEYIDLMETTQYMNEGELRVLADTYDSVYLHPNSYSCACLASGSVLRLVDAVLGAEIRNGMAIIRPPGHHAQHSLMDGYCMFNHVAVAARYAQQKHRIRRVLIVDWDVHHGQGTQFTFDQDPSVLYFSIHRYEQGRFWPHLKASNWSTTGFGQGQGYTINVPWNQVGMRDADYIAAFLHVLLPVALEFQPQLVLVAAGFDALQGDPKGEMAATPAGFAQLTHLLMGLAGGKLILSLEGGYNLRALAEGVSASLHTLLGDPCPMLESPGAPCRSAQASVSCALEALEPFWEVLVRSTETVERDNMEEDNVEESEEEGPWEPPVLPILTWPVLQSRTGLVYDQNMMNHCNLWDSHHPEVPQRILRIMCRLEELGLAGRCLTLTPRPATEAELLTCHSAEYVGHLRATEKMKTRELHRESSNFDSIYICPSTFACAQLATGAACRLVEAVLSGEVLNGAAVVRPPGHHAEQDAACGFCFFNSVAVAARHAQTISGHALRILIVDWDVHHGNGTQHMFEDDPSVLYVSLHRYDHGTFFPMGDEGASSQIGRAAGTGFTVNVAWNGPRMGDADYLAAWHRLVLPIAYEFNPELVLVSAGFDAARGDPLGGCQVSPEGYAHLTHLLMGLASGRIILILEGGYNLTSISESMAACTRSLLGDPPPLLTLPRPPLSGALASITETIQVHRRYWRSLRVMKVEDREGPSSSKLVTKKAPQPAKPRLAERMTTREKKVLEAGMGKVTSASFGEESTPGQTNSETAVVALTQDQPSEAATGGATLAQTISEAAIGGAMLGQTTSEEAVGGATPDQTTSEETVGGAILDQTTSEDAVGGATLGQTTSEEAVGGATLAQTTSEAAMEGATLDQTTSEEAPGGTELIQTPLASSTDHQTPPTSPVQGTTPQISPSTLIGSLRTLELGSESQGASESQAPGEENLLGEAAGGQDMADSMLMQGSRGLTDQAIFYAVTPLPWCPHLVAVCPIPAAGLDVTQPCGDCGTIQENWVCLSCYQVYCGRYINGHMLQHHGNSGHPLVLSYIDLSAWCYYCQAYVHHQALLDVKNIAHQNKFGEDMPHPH

[2] = target: T2, Protein deacetylase HDAC6 (Homo sapiens) (UniProt Q9UBN7); conditions: at 30 µM
T2 sequence (whole entry): T1 sequence (Q9UBN7 whole entry)
Description: Inhibition of human KDAC6 at 30 uM using FITC-labeled histone H4 acetylated peptide as substrate after 60 mins by fluorescence assay relative to control

[3] = target: T3, Histone deacetylase 8 (Homo sapiens, UniProt Q9BY41); experiment: Inhibition of human KDAC8 after 60 mins by fluorescence assay
T3 sequence (Q9BY41 whole entry): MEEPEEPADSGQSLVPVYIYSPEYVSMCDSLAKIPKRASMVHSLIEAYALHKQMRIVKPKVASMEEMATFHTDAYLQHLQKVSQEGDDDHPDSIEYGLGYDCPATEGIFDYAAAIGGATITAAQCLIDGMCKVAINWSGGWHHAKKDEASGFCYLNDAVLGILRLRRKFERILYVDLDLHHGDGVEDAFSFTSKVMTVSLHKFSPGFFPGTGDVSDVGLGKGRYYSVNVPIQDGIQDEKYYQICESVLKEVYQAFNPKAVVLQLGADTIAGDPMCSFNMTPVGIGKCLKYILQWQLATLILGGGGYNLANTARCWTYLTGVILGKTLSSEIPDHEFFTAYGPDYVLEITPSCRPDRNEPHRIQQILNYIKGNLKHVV

[4] = target: T4, Histone deacetylase 8 (Homo sapiens) (UniProt Q9BY41); experiment: Inhibition of human KDAC8 at 30 uM after 60 mins by fluorescence assay relative to control
T4 sequence (whole entry): T3 sequence (Q9BY41 whole entry)

[5] = target: T5, Histone deacetylase 1 (Homo sapiens, UniProt Q13547); experiment: Inhibition of human KDAC1 using substrate A after 60 mins by fluorescence assay
T5 sequence (Q13547 whole entry): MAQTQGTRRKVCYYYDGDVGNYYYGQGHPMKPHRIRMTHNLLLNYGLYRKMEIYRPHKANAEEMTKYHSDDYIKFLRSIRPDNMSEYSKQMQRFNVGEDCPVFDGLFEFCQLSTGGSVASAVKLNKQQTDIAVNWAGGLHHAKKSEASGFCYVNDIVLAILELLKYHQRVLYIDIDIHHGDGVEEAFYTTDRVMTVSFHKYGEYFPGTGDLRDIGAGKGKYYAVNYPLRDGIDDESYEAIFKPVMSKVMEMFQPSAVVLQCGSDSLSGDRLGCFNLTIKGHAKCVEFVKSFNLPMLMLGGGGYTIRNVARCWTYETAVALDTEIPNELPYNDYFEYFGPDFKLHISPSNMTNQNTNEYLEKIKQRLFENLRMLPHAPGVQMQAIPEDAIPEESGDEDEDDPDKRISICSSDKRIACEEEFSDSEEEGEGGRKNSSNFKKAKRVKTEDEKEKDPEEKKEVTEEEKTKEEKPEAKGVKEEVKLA

[6] = target: T5, Histone deacetylase 1; experiment: Inhibition of human KDAC1 at 30 uM using substrate A after 60 mins by fluorescence assay relative to control
[7] = target: T6, Histone deacetylase 3 (Homo sapiens, UniProt O15379); experiment: Inhibition of human KDAC3 at 30 uM using FITC-labeled p53 acetylated peptide as substrate after 60 mins by fluorescence assay relative to control
T6 sequence (O15379 whole entry): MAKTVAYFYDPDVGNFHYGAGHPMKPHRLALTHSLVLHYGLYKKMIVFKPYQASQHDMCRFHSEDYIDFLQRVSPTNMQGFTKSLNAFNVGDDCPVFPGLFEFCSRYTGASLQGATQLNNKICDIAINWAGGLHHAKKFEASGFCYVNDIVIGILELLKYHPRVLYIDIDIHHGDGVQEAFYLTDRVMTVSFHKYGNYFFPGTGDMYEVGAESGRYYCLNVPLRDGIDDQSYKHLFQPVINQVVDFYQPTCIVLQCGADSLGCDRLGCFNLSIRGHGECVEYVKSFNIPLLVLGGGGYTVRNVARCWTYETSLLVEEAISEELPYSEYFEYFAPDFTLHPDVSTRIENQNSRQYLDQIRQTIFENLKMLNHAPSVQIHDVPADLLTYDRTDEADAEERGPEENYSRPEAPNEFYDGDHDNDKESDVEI

[8] = target: T6, Histone deacetylase 3; experiment: Inhibition of human KDAC3 using FITC-labeled p53 acetylated peptide as substrate after 60 mins by fluorescence assay

SMILES	IC50 [1]	inhibition [2]	IC50 [3]	inhibition [4]	IC50 [5]	inhibition [6]	inhibition [7]	IC50 [8]
O=C(CC[C@@H]1N=C(c2ccccc2)c2ccccc2NC1=O)NC(c1ccccc1)(c1ccccc1)c1ccccc1	> 30 µM	0%	> 30 µM	0%	> 30 µM	7.59%	0%	> 30 µM
O=C(CCCCN1C(=O)[C@H](Cc2ccccc2)N=C(c2ccccc2)c2ccccc21)NO	1.98 µM	95.1%	12.7 µM	68.6%	8.51 µM	75%	97%	0.49 µM
COC(=O)CCCCN1C(=O)[C@H]([C@@H](C)OCc2ccccc2)N=C(c2ccccc2)c2ccccc21	> 30 µM	0%	> 30 µM	6.88%	> 30 µM	0.64%	7.91%	> 30 µM
O=C(O)C[C@H]1N=C(c2ccccc2)c2ccccc2NC1=O	> 30 µM	0%	> 30 µM	0%	> 30 µM	0.74%	0%	> 30 µM
O=C(CCCCN1C(=O)[C@H](CC(=O)NO)N=C(c2ccccc2)c2ccccc21)NO	> 30 µM	42.5%	> 30 µM	10%	9.99 µM	74.7%	77.7%	10.4 µM
CC(C)(C)OC(=O)NCCCC[C@@H]1N=C(c2ccccc2)c2ccccc2NC1=O	> 30 µM	0%	> 30 µM	0%	> 30 µM	2.97%	0%	> 30 µM
COC(=O)CCCCN1C(=O)[C@H](Cc2cncn2C(c2ccccc2)(c2ccccc2)c2ccccc2)N=C(c2ccccc2)c2ccccc21	> 30 µM	5.33%	> 30 µM	12.1%	> 30 µM	4.66%	0%	> 30 µM
COC(=O)CCCCN1C(=O)[C@H](CCCCNC(=O)OC(C)(C)C)N=C(c2ccccc2)c2ccccc21	> 30 µM	0%	> 30 µM	1.03%	> 30 µM	8.22%	1.96%	> 30 µM
O=C(CC[C@@H]1N=C(c2ccccc2)c2ccccc2NC1=O)NO	> 30 µM	36.5%	> 30 µM	43.8%	16.9 µM	64.4%	4.57%	> 30 µM
CC(C)(C)SC[C@H]1N=C(c2ccccc2)c2ccccc2NC1=O	> 30 µM	2.05%	> 30 µM	16.1%	> 30 µM	4.1%	2.88%	> 30 µM
CC(C)(C)OC(=O)C[C@H]1N=C(c2ccccc2)c2ccccc2NC1=O	> 30 µM	0%	> 30 µM	0%	> 30 µM	0.37%	0%	> 30 µM
CC(C)(C)SC[C@H]1N=C(c2ccccc2)c2ccccc2N(CCCCC(=O)NO)C1=O	5.37 µM	88%	> 30 µM	44.6%	7.99 µM	79.9%	98.8%	0.75 µM
O=C(CCCCN1C(=O)[C@@H](CS)N=C(c2ccccc2)c2ccccc21)NO	0.58 µM	96.9%	8.11 µM	81.2%	0.46 µM	97.3%	100%	0.18 µM
COC(=O)CCCCN1C(=O)[C@H](CCC(=O)OC(C)(C)C)N=C(c2ccccc2)c2ccccc21	> 30 µM	0%	> 30 µM	2.88%	> 30 µM	2.72%	0%	> 30 µM
O=C(CCCCN1C(=O)CN=C(c2ccccc2)c2ccccc21)NO	1.89 µM	94.2%	6.72 µM	75.9%	3.84 µM	88.3%	97.2%	0.66 µM
O=C(C[C@@H]1N=C(c2ccccc2)c2ccccc2NC1=O)NC(c1ccccc1)(c1ccccc1)c1ccccc1	> 30 µM	0%	> 30 µM	0%	> 30 µM	4.31%	0%	> 30 µM
C[C@H](OCc1ccccc1)[C@@H]1N=C(c2ccccc2)c2ccccc2N(CCCCC(=O)O)C1=O	> 30 µM	0%	> 30 µM	15.4%	> 30 µM	2.94%	0%	> 30 µM
CC(C)(C)OC(=O)CC[C@@H]1N=C(c2ccccc2)c2ccccc2NC1=O	> 30 µM	0.01%	> 30 µM	1.79%	> 30 µM	5.85%	0%	> 30 µM
C[C@@H]1N=C(c2ccccc2)c2ccccc2NC1=O	> 30 µM	0%	> 30 µM	0%	> 30 µM	7.49%	0%	> 30 µM
O=C(CC[C@H]1N=C(c2ccccc2)c2ccccc2NC1=O)NO	> 30 µM	19%	> 30 µM	9.02%	> 30 µM	28%	29.4%	> 30 µM
C[C@@H]1N=C(c2ccccc2)c2ccccc2N(CCCCC(=O)NO)C1=O	2.95 µM	92.7%	24.7 µM	53.8%	12.7 µM	68.4%	93.8%	1.8 µM
O=C1CN=C(c2ccccc2)c2ccccc2N1 [RO-052921]	> 30 µM	0%	> 30 µM	2.82%	> 30 µM	7.95%	3.45%	> 30 µM
O=C(C[C@H]1N=C(c2ccccc2)c2ccccc2NC1=O)NO	> 30 µM	0%	> 30 µM	19%	> 30 µM	9.14%	1.64%	> 30 µM
COC(=O)CCCCN1C(=O)[C@H](C(C)C)N=C(c2ccccc2)c2ccccc21	> 30 µM	0%	> 30 µM	9.56%	> 30 µM	12.5%	0%	> 30 µM
CSCC[C@@H]1N=C(c2ccccc2)c2ccccc2NC1=O	> 30 µM	2.62%	> 30 µM	9.07%	> 30 µM	0%	0%	> 30 µM
